Experimental data: ChEMBL document CHEMBL1135233, “Cytotoxic, antifouling bromotyramines: a synthetic study on simple marine natural products and Their analogues” (Bioorg Med Chem Lett, 2002)
Values after ≈ are worked out from the molar mass of the structure shown.

How the values were obtained:
[1] = system: SF-268; assay: Tested for growth inhibition against human SF-268 CNS cancer cell line at 100 uM; type: functional
[2] = system: Amphibalanus amphitrite; assay: Antifouling activity of compound against Balanus amphitrite expressed by inhibition of settlement of barnacle cyprids; type: functional
[3] = system: MCF7; assay: Tested for growth inhibition against human MCF-7 breast cancer cell line at 100 uM; type: functional
[4] = system: NCI-H460; assay: Tested for growth inhibition against human NCI-H460 lung cancer cell line at 100 uM; type: functional
[5] = system: SW-620; assay: Tested for the cytotoxicity against SW-620 colon cancer cell line […]; type: functional; details: Homo sapiens
[6] = system: Hs-578T; assay: Tested for the cytotoxicity against Hs 578.T breast cancer cell line; type: functional; details: Homo sapiens
[7] = system: NCI-H226; assay: Tested for the cytotoxicity against NCI-H226 lung cancer cell line […]; type: functional; details: Homo sapiens
[8] = Tested for the lethality dose against barnacle cyprids of Balanus amphitrite; details: Amphibalanus amphitrite; read-out: LD50 (the source's name)
[9] = system: CCRF-CEM; assay: Tested for the cytotoxicity against CCRF-CEM leukemia cell line […]; type: functional; details: Homo sapiens
[10] = system: NCI-H460; assay: Tested for the cytotoxicity against NCI-H460 lung cancer cell line […]; type: functional; details: Homo sapiens
[11] = system: P388; assay: Tested for the inhibition against P388 murine leukemia cell; type: functional, cell-based; details: Mus musculus

With `NCCOc1c(Br)cc(CCN)cc1Br` the Growth [1] was 70%, the EC50 [2] was 0.8 µg/mL (≈ 2.37 µM) and the Growth [3] was 39%. For the same compound, the Growth [4] was 70%.

Work on `COc1c(Br)cc(CCN)cc1Br` yielded a GI50 [5] of less than 10 nM, a Growth [1] of 16% and a GI50 [6] of 200 nM. For the same compound, the EC50 [2] was 0.07 µg/mL (≈ 0.227 µM), the Growth [3] was 8% and the GI50 [7] was less than 10 nM. The LC50 [8] was 0.2 µg/mL (≈ 0.647 µM), the Growth [4] was 53% and the GI50 [9] was less than 10 nM.

With `NCCCOc1ccc(CCN)cc1` the Growth [1] was 120%, the EC50 [2] was greater than 50 µg/mL and the Growth [3] was 104%. For the same compound, the Growth [4] was 120%.

In the case of `NCCCOc1c(Cl)cc(CCN)cc1Cl`, the Growth [1] is reported as 85%, the EC50 [2] is reported as 33 µg/mL (≈ 125 µM) and the Growth [3] is reported as -53%. For the same compound, the Growth [4] was 93%.

For `NCCCCOc1c(Br)cc(CCN)cc1Br`, the Growth [1] was 50%, the EC50 [2] was 6 µg/mL (≈ 16.4 µM) and the Growth [3] was 19%. It also gave a Growth [4] of 25%.

`CCCCCCCC(=O)NCCc1cc(Br)c(OC)c(Br)c1` gave a Growth [1] of -68%, an EC50 [2] of 0.2 µg/mL (≈ 0.46 µM) and a Growth [3] of -74%. The LC50 [8] was 1 µg/mL (≈ 2.3 µM), the Growth [4] was 1% and the GI50 [9] was 400 nM.

`CC(=O)NCCc1cc(Br)c(O)c(Br)c1` gave a Growth [1] of 84%, a Growth [3] of 88% and a Growth [4] of 105%.

Compound `CCCCCCCCNCCc1cc(Br)c(OC)c(Br)c1` has a Growth [1] of -84%, an EC50 [2] of 0.008 µg/mL (≈ 0.019 µM) and a GI50 [10] of 50 nM. The Growth [3] was -82%, the LC50 [8] was 0.03 µg/mL (≈ 0.0712 µM) and the Growth [4] was -83%.

With `N#CC(=O)NCCCOc1c(Br)cc(CCN)cc1Br` [CERATINAMINE] the Growth [1] was 39%, the Growth [3] was 7% and the Growth [4] was 82%.

With `NCCCOc1c(Br)cc(CCN)cc1Br` [MOLOKA'IAMINE] the Growth [1] was 62%, the EC50 [2] was 5 µg/mL (≈ 14.2 µM) and the Growth [3] was 38%. The Growth [4] was 68% and the IC50 [11] was 2.1 µg/mL (≈ 5.96 µM).
